According to PubChem BioAssay (NCI):
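In this assay, cells in 96-well plates receive the compound at five concentrations for 48 hours. Endpoints are linearly interpolated between the surrounding concentrations. GI50 marks 50% less growth. TGI is the concentration that stops growth completely.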

Assays:
Assay in all cases: NCI tumour cell line growth inhibition, 48 h; in the data active = GI50 below about 0.43 µM; inactive = the rest
[1] = test system: SNB-75 CNS
[2] = test system: NCI/ADR-RES ovarian
[3] = test system: OVCAR-5 ovarian
[4] = test system: SK-MEL-5 melanoma
[5] = test system: EKVX NSCLC
[6] = test system: LOX IMVI melanoma
[7] = test system: OVCAR-3 ovarian
[8] = test system: SN12C renal
[9] = test system: HOP-92 NSCLC
[10] = test system: T-47D breast
[11] = test system: OVCAR-4 ovarian
[12] = test system: MOLT-4 leukemia
[13] = test system: HCT-15 colon
[14] = test system: SF-539 CNS
[15] = test system: COLO 205 colon
[16] = test system: HOP-62 NSCLC
[17] = test system: KM12 colon
[18] = test system: SNB-19 CNS
[19] = test system: HT29 colon
[20] = test system: M14 melanoma
[21] = test system: SW-620 colon
[22] = test system: MALME-3M melanoma
[23] = test system: PC-3 prostate
[24] = test system: UACC-62 melanoma
[25] = test system: RPMI-8226 leukemia
[26] = test system: CCRF-CEM leukemia
[27] = test system: UACC-257 melanoma
[28] = test system: K-562 leukemia
[29] = test system: RXF 393 renal
[30] = test system: HCT-116 colon
[31] = test system: NCI-H460 lung
[32] = test system: NCI-H23 lung
[33] = test system: U251 CNS
[34] = test system: SR leukemia
[35] = test system: TK-10 renal
[36] = test system: CAKI-1 renal
[37] = test system: SK-MEL-28 melanoma
[38] = test system: SF-295 CNS
[39] = test system: HCC-2998 colon
[40] = test system: BT-549 breast
[41] = test system: NCI-H522 lung
[42] = test system: DU-145 prostate
[43] = test system: MCF7 breast
[44] = test system: OVCAR-8 ovarian
[45] = test system: MDA-MB-231 breast
[46] = test system: SK-MEL-2 melanoma
[47] = test system: SF-268 CNS
[48] = test system: NCI-H226 lung
[49] = test system: A498 renal
[50] = test system: SK-OV-3 ovarian
[51] = test system: UO-31 renal
[52] = test system: MDA-MB-435
[53] = test system: HL-60(TB) leukemia
[54] = test system: A549 NSCLC
[55] = test system: HS 578T breast
[56] = test system: IGROV1 ovarian
[57] = test system: ACHN renal
[58] = test system: 786-0 renal

Cn1cc(-c2ccc3c(c2)ncn3-c2cc(NS(=O)(=O)C3CC3)cc(-c3ccc(F)cc3F)c2)cn1
72.7 µM: TGI [35]
8.17 µM: TGI [29]
38.3 µM: TGI [19]
8.28 µM: TGI [1]
61.9 µM: TGI [56]
63.8 µM: TGI [22]
12.6 µM: TGI [55]
12.7 µM: TGI [14]
62.3 µM: TGI [7]
72.1 µM: TGI [28]
inactive: GI50 [1] 0.59 µM | GI50 [2] 13.6 µM | GI50 [3] 14 µM | GI50 [4] 13.1 µM | GI50 [5] 21.3 µM | GI50 [6] 5.75 µM | GI50 [7] 14.5 µM | GI50 [8] 2.99 µM | GI50 [9] 2.83 µM | GI50 [10] 7.39 µM | GI50 [11] 3.45 µM | GI50 [12] 2.8 µM | GI50 [13] 7.4 µM | GI50 [14] 1.37 µM | GI50 [15] 24.8 µM | GI50 [16] 14.1 µM | GI50 [17] 4.96 µM | GI50 [18] 9.46 µM | GI50 [19] 10.3 µM | GI50 [20] 14.9 µM | GI50 [21] 39.1 µM | GI50 [22] 22.7 µM | GI50 [23] 5.97 µM | GI50 [24] 25.5 µM | GI50 [25] 3.97 µM | GI50 [26] 7.5 µM | GI50 [27] 27.5 µM | GI50 [28] 4.31 µM | GI50 [29] 1.53 µM | GI50 [30] 5.39 µM | GI50 [31] 23.4 µM | GI50 [32] 20.6 µM | GI50 [33] 3.77 µM | GI50 [34] 6 µM | GI50 [35] 2.73 µM | GI50 [36] 3.77 µM | GI50 [37] 20.9 µM | GI50 [38] 8.18 µM | GI50 [39] 22.7 µM | GI50 [40] 4.22 µM | GI50 [41] 10.6 µM | GI50 [42] 21.2 µM | GI50 [43] 4.37 µM | GI50 [44] 15.4 µM | GI50 [45] 5.61 µM | GI50 [46] 25.7 µM | GI50 [47] 3.01 µM | GI50 [48] 27 µM | GI50 [50] 10.2 µM | GI50 [51] 0.635 µM | GI50 [52] 21.9 µM | GI50 [53] 11.9 µM | GI50 [54] 9.01 µM | GI50 [55] 1.68 µM | GI50 [56] 3.49 µM | GI50 [57] 5 µM | GI50 [58] 6.05 µM
61.5 µM: TGI [46]
42 µM: TGI [6]
80.1 µM: TGI [39]
0.542 µM: TGI [49]
37.2 µM: TGI [38]
55.8 µM: TGI [30]
56.7 µM: TGI [40]
32.2 µM: TGI [25]
62.4 µM: TGI [9]
94.4 µM: TGI [48]
32 µM: TGI [4]
62.8 µM: TGI [10]
36.7 µM: TGI [51]
92.6 µM: TGI [43]
66.9 µM: TGI [57]
64.9 µM: TGI [41]
73.1 µM: TGI [24]
active: GI50 [49] 0.074 µM
> 100 µM: TGI [2] | TGI [3] | TGI [5] | TGI [8] | TGI [11] | TGI [12] | TGI [13] | TGI [15] | TGI [16] | TGI [17] | TGI [18] | TGI [20] | TGI [21] | TGI [23] | TGI [26] | TGI [27] | TGI [31] | TGI [32] | TGI [33] | TGI [34] | TGI [36] | TGI [37] | TGI [42] | TGI [44] | TGI [45] | TGI [47] | TGI [50] | TGI [52] | TGI [54] | TGI [58]
45.4 µM: TGI [53]
